Experimental data from the NIST ThermoML archive (doi:10.1021/acs.jced.8b01135).
Values joined by “and” are separate entries in the source; they are usually repeats but may differ in a detail not shown here. Equal entries are not always repeated. ± gives the expanded uncertainty stated by the source.

Key:
[1] = xn = mol fraction of the nth substance listed; details: 102 kPa, Liquid, x2 = 0; for speed of sound: Frequency=3 MHz, Single path-length method; for mass density: Vibrating tube method; for viscosity: Concentric cylinders viscometry
[2] = 102 kPa, Liquid; for speed of sound: Frequency=3 MHz, Single path-length method; for mass density: Vibrating tube method; for viscosity: Concentric cylinders viscometry

## CCCCCCCCCCCC [dodecane] + CCCCCCCC1CCCCC1
[1]; 288.15 K
  speed of sound: 1317.2 ± 0.8 m/s
  mass density: 752.35 ± 0.71 kg/m3
[1]; 293.15 K
  viscosity: 1.49 ± 0.02 mPa·s
  speed of sound: 1297.7 ± 0.8 m/s
  mass density: 748.72 ± 0.71 kg/m3
[1]; 298.15 K
  speed of sound: 1278.2 ± 0.8 m/s
  mass density: 745.09 ± 0.71 kg/m3
[1]; 303.15 K
  viscosity: 1.27 ± 0.02 mPa·s
  speed of sound: 1259 ± 0.8 m/s
  mass density: 741.46 ± 0.71 kg/m3
[1]; 313.15 K
  viscosity: 1.08 ± 0.02 mPa·s
  speed of sound: 1221.1 ± 0.8 m/s
  mass density: 734.19 ± 0.71 kg/m3
[1]; 323.15 K
  viscosity: 0.934 ± 0.021 mPa·s
  speed of sound: 1184 ± 0.8 m/s
  mass density: 726.88 ± 0.71 kg/m3
[1]; 333.15 K
  viscosity: 0.813 ± 0.021 mPa·s
  speed of sound: 1147.8 ± 0.8 m/s
  mass density: 719.53 ± 0.71 kg/m3

## CCCCCC1CCCCC1 [pentylcyclohexane]
[2]; 288.15 K
  speed of sound: 1365.8 ± 1.1 m/s
  mass density: 807.78 ± 0.72 kg/m3
[2]; 293.15 K
  viscosity: 1.69 ± 0.03 mPa·s
  speed of sound: 1346 ± 1.1 m/s
  mass density: 804.13 ± 0.72 kg/m3
[2]; 298.15 K
  speed of sound: 1326.4 ± 1.1 m/s
  mass density: 800.48 ± 0.72 kg/m3
[2]; 303.15 K
  viscosity: 1.43 ± 0.03 mPa·s
  speed of sound: 1306.7 ± 1.1 m/s
  mass density: 796.82 ± 0.72 kg/m3
[2]; 313.15 K
  viscosity: 1.21 ± 0.03 mPa·s
  speed of sound: 1268.2 ± 1.1 m/s
  mass density: 789.49 ± 0.72 kg/m3
[2]; 323.15 K
  viscosity: 1.05 ± 0.03 mPa·s
  speed of sound: 1230.5 ± 1.1 m/s
  mass density: 782.14 ± 0.72 kg/m3
[2]; 333.15 K
  viscosity: 0.914 ± 0.031 mPa·s
  speed of sound: 1193.5 ± 1.1 m/s
  mass density: 774.75 ± 0.72 kg/m3

## CCCCCCCCCCCCC1CCCCC1 [dodecylcyclohexane]
[2]; 288.15 K
  speed of sound: 1441.5 ± 0.9 m/s
  mass density: 825.71 ± 0.71 kg/m3
[2]; 293.15 K
  viscosity: 7.77 ± 0.05 mPa·s and 7.76 ± 0.05 mPa·s
  speed of sound: 1422.9 ± 0.9 m/s
  mass density: 822.36 ± 0.71 kg/m3
[2]; 298.15 K
  speed of sound: 1404.8 ± 0.9 m/s
  mass density: 819.02 ± 0.71 kg/m3
[2]; 303.15 K
  viscosity: 5.81 ± 0.04 mPa·s
  speed of sound: 1386.3 ± 0.9 m/s
  mass density: 815.68 ± 0.71 kg/m3
[2]; 313.15 K
  viscosity: 4.48 ± 0.04 mPa·s
  speed of sound: 1350.5 ± 0.9 m/s
  mass density: 809.03 ± 0.71 kg/m3
[2]; 323.15 K
  viscosity: 3.55 ± 0.04 mPa·s
  speed of sound: 1315.4 ± 0.9 m/s
  mass density: 802.38 ± 0.71 kg/m3
[2]; 333.15 K
  viscosity: 2.87 ± 0.03 mPa·s and 2.88 ± 0.03 mPa·s
  speed of sound: 1281.4 ± 0.9 m/s
  mass density: 795.75 ± 0.71 kg/m3

## CCCCCCCCCCCC [dodecane]
[2]; 288.15 K
  speed of sound: 1317.2 ± 0.7 m/s
  mass density: 752.35 ± 0.71 kg/m3
[2]; 293.15 K
  viscosity: 1.49 ± 0.03 mPa·s
  speed of sound: 1297.7 ± 0.7 m/s
  mass density: 748.72 ± 0.71 kg/m3
[2]; 298.15 K
  speed of sound: 1278.2 ± 0.7 m/s
  mass density: 745.09 ± 0.71 kg/m3
[2]; 303.15 K
  viscosity: 1.27 ± 0.03 mPa·s
  speed of sound: 1259 ± 0.7 m/s
  mass density: 741.46 ± 0.71 kg/m3
[2]; 313.15 K
  viscosity: 1.08 ± 0.03 mPa·s
  speed of sound: 1221.1 ± 0.7 m/s
  mass density: 734.18 ± 0.71 kg/m3 and 734.19 ± 0.71 kg/m3
[2]; 323.15 K
  viscosity: 0.934 ± 0.031 mPa·s
  speed of sound: 1184 ± 0.7 m/s
  mass density: 726.88 ± 0.71 kg/m3
[2]; 333.15 K
  viscosity: 0.813 ± 0.031 mPa·s
  speed of sound: 1147.8 ± 0.7 m/s
  mass density: 719.53 ± 0.71 kg/m3

## CCCCCCC1CCCCC1 [hexylcyclohexane]
[2]; 288.15 K
  speed of sound: 1380.4 ± 1.4 m/s
  mass density: 811.34 ± 0.75 kg/m3
[2]; 293.15 K
  viscosity: 2.19 ± 0.03 mPa·s
  speed of sound: 1360.9 ± 1.4 m/s
  mass density: 807.76 ± 0.75 kg/m3
[2]; 298.15 K
  speed of sound: 1341.4 ± 1.4 m/s
  mass density: 804.19 ± 0.75 kg/m3
[2]; 303.15 K
  viscosity: 1.79 ± 0.03 mPa·s
  speed of sound: 1322.1 ± 1.4 m/s
  mass density: 800.61 ± 0.75 kg/m3
[2]; 313.15 K
  viscosity: 1.52 ± 0.03 mPa·s
  speed of sound: 1284.2 ± 1.4 m/s
  mass density: 793.43 ± 0.75 kg/m3
[2]; 323.15 K
  viscosity: 1.3 ± 0.03 mPa·s
  speed of sound: 1247.1 ± 1.4 m/s
  mass density: 786.25 ± 0.75 kg/m3
[2]; 333.15 K
  viscosity: 1.12 ± 0.03 mPa·s
  speed of sound: 1211 ± 1.4 m/s
  mass density: 779.05 ± 0.75 kg/m3

## CCCCCCCCCCCC [dodecane] + CCCC1CCCCC1
[1]; 288.15 K
  speed of sound: 1317.2 ± 0.8 m/s
  mass density: 752.35 ± 0.71 kg/m3
[1]; 293.15 K
  viscosity: 1.49 ± 0.02 mPa·s
  speed of sound: 1297.7 ± 0.8 m/s
  mass density: 748.72 ± 0.71 kg/m3
[1]; 298.15 K
  speed of sound: 1278.2 ± 0.8 m/s
  mass density: 745.09 ± 0.71 kg/m3
[1]; 303.15 K
  viscosity: 1.27 ± 0.02 mPa·s
  speed of sound: 1259 ± 0.8 m/s
  mass density: 741.46 ± 0.71 kg/m3
[1]; 313.15 K
  viscosity: 1.08 ± 0.02 mPa·s
  speed of sound: 1221.1 ± 0.8 m/s
  mass density: 734.19 ± 0.71 kg/m3
[1]; 323.15 K
  viscosity: 0.934 ± 0.021 mPa·s
  speed of sound: 1184 ± 0.8 m/s
  mass density: 726.88 ± 0.71 kg/m3
[1]; 333.15 K
  viscosity: 0.813 ± 0.021 mPa·s
  speed of sound: 1147.8 ± 0.8 m/s
  mass density: 719.53 ± 0.71 kg/m3

## CCCCCCCCCCC1CCCCC1 [decylcyclohexane]
[2]; 288.15 K
  speed of sound: 1425.2 ± 0.9 m/s
  mass density: 821.93 ± 0.71 kg/m3
[2]; 293.15 K
  viscosity: 5.34 ± 0.04 mPa·s
  speed of sound: 1406.4 ± 0.9 m/s
  mass density: 818.54 ± 0.71 kg/m3
[2]; 298.15 K
  speed of sound: 1387.7 ± 0.9 m/s
  mass density: 815.16 ± 0.71 kg/m3
[2]; 303.15 K
  viscosity: 4.09 ± 0.04 mPa·s
  speed of sound: 1369.1 ± 0.9 m/s
  mass density: 811.78 ± 0.71 kg/m3
[2]; 313.15 K
  viscosity: 3.23 ± 0.03 mPa·s
  speed of sound: 1332.8 ± 0.9 m/s
  mass density: 805.02 ± 0.71 kg/m3
[2]; 323.15 K
  viscosity: 2.6 ± 0.03 mPa·s
  speed of sound: 1297.2 ± 0.9 m/s
  mass density: 798.26 ± 0.71 kg/m3
[2]; 333.15 K
  viscosity: 2.15 ± 0.03 mPa·s
  speed of sound: 1262.7 ± 0.9 m/s
  mass density: 791.49 ± 0.71 kg/m3
